Laboratory results as given in PubChem BioAssay AID2060912 (Molecular Pharmacology Branch, DTP, NCI, 2025).

Tested on: HUVEC/MSC spheroids viability
Test: Human HUVEC/MSC cell line growth inhibition [KRAS2];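 as to viability, T/C: percent of DMSO vehicle control luminescence so 100% = untreated viability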
Conditions: for IC50: curve of first compound; for viability, T/C: stronger effect = lower value
Method in brief: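 Endothelial cells (HUVEC) plus mesenchymal stem cells, cultured at 37 °C/5% CO2 and assembled into spheroids without cancer cells, served as a stromal control. Drug pairs and single agents spanned half-log ranges anchored to clinical Cmax.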

[1] = second compound 0.0316 µM, first compound 0.0316 µM
[2] = second compound 0.0316 µM, first compound 0.1 µM
[3] = second compound 0.0316 µM, first compound 0.316 µM
[4] = second compound 0.0316 µM, first compound 1 µM
[5] = second compound 0.1 µM, first compound 0.0316 µM
[6] = second compound 0.1 µM, first compound 0.1 µM
[7] = second compound 0.1 µM, first compound 0.316 µM
[8] = second compound 0.1 µM, first compound 1 µM
[9] = second compound 0.316 µM, first compound 0.0316 µM
[10] = second compound 0.316 µM, first compound 0.1 µM
[11] = second compound 0.316 µM, first compound 0.316 µM
[12] = second compound 0.316 µM, first compound 1 µM
[13] = second compound 1 µM, first compound 0.0316 µM
[14] = second compound 1 µM, first compound 0.1 µM
[15] = second compound 1 µM, first compound 0.316 µM
[16] = second compound 1 µM, first compound 1 µM
[17] = second compound 3.16 µM, first compound 0.0316 µM
[18] = second compound 3.16 µM, first compound 0.1 µM
[19] = second compound 3.16 µM, first compound 0.316 µM
[20] = second compound 3.16 µM, first compound 1 µM
[21] = second compound 10 µM, first compound 0.0316 µM
[22] = second compound 10 µM, first compound 0.1 µM
[23] = second compound 10 µM, first compound 0.316 µM
[24] = second compound 10 µM, first compound 1 µM
[25] = second compound 0.0316 µM, first compound 0.00316 µM
[26] = second compound 0.0316 µM, first compound 0.01 µM
[27] = second compound 0.1 µM, first compound 0.00316 µM
[28] = second compound 0.1 µM, first compound 0.01 µM
[29] = second compound 0.316 µM, first compound 0.00316 µM
[30] = second compound 0.316 µM, first compound 0.01 µM
[31] = second compound 1 µM, first compound 0.00316 µM
[32] = second compound 1 µM, first compound 0.01 µM
[33] = second compound 3.16 µM, first compound 0.00316 µM
[34] = second compound 3.16 µM, first compound 0.01 µM
[35] = second compound 10 µM, first compound 0.00316 µM
[36] = second compound 10 µM, first compound 0.01 µM

CC1(C)CCC(CN2CCN(c3ccc(C(=O)NS(=O)(=O)c4ccc(NCC5CCOCC5)c([N+](=O)[O-])c4)c(Oc4cnc5[nH]ccc5c4)c3)CC2)=C(c2ccc(Cl)cc2)C1 + COc1cc2nc(C)nc(NC(C)c3cc(N)cc(C(F)(F)F)c3)c2cc1OC1CCOC1
IC50 (second compound 0.0316 µM): 5090 nM
IC50 (second compound 0.1 µM): 4590 nM
IC50 (second compound 0.316 µM): 4780 nM
IC50 (second compound 1 µM): 5010 nM
IC50 (second compound 3.16 µM): 5490 nM
IC50 (second compound 10 µM): 4610 nM
viability, T/C [1]: 105%
viability, T/C [2]: 116%
viability, T/C [3]: 105%
viability, T/C [4]: 96.6%
viability, T/C (second compound 0.0316 µM, first compound 3.16 µM): 82.3%
viability, T/C (second compound 0.0316 µM, first compound 10 µM): 6.99%
viability, T/C [5]: 98.5%
viability, T/C [6]: 94.6%
viability, T/C [7]: 102%
viability, T/C [8]: 100%
viability, T/C (second compound 0.1 µM, first compound 3.16 µM): 72.8%
viability, T/C (second compound 0.1 µM, first compound 10 µM): 2.34%
viability, T/C [9]: 82.7%
viability, T/C [10]: 104%
viability, T/C [11]: 76.6%
viability, T/C [12]: 81.5%
viability, T/C (second compound 0.316 µM, first compound 3.16 µM): 76.3%
viability, T/C (second compound 0.316 µM, first compound 10 µM): 5.03%
viability, T/C [13]: 95.7%
viability, T/C [14]: 79.5%
viability, T/C [15]: 84%
viability, T/C [16]: 92%
viability, T/C (second compound 1 µM, first compound 3.16 µM): 81%
viability, T/C (second compound 1 µM, first compound 10 µM): 3.29%
viability, T/C [17]: 73.1%
viability, T/C [18]: 105%
viability, T/C [19]: 110%
viability, T/C [20]: 95.2%
viability, T/C (second compound 3.16 µM, first compound 3.16 µM): 87.7%
viability, T/C (second compound 3.16 µM, first compound 10 µM): 8.97%
viability, T/C [21]: 61.3%
viability, T/C [22]: 70.5%
viability, T/C [23]: 78.9%
viability, T/C [24]: 68.2%
viability, T/C (second compound 10 µM, first compound 3.16 µM): 80.6%
viability, T/C (second compound 10 µM, first compound 10 µM): 5.02%

CCN1CCN(Cc2ccc(Nc3ncc(F)c(-c4cc(F)c5nc(C)n(C(C)C)c5c4)n3)nc2)CC1 + COc1cc2nc(C)nc(NC(C)c3cc(N)cc(C(F)(F)F)c3)c2cc1OC1CCOC1
IC50 (second compound 0.0316 µM): > 1000 nM
IC50 (second compound 0.1 µM): > 1000 nM
IC50 (second compound 0.316 µM): > 1000 nM
IC50 (second compound 1 µM): > 1000 nM
IC50 (second compound 3.16 µM): > 1000 nM
IC50 (second compound 10 µM): > 1000 nM
viability, T/C [25]: 93.3%
viability, T/C [26]: 77%
viability, T/C [1]: 87.6%
viability, T/C [2]: 80.3%
viability, T/C [3]: 93.4%
viability, T/C [4]: 122%
viability, T/C [27]: 77.7%
viability, T/C [28]: 90.9%
viability, T/C [5]: 83.1%
viability, T/C [6]: 73.7%
viability, T/C [7]: 105%
viability, T/C [8]: 106%
viability, T/C [29]: 72.5%
viability, T/C [30]: 92.5%
viability, T/C [9]: 79.4%
viability, T/C [10]: 79%
viability, T/C [11]: 96.1%
viability, T/C [12]: 121%
viability, T/C [31]: 76.1%
viability, T/C [32]: 68.8%
viability, T/C [13]: 71.2%
viability, T/C [14]: 77.2%
viability, T/C [15]: 95.7%
viability, T/C [16]: 117%
viability, T/C [33]: 65.8%
viability, T/C [34]: 74.4%
viability, T/C [17]: 65.4%
viability, T/C [18]: 69.9%
viability, T/C [19]: 77%
viability, T/C [20]: 103%
viability, T/C [35]: 63.7%
viability, T/C [36]: 76.7%
viability, T/C [21]: 65.7%
viability, T/C [22]: 56.4%
viability, T/C [23]: 66.5%
viability, T/C [24]: 75%

Cn1ncnc1[C@H]1c2n[nH]c(=O)c3cc(F)cc(c23)N[C@@H]1c1ccc(F)cc1 + COc1cc2nc(C)nc(NC(C)c3cc(N)cc(C(F)(F)F)c3)c2cc1OC1CCOC1
IC50 (second compound 0.0316 µM): > 100 nM
IC50 (second compound 0.1 µM): > 100 nM
IC50 (second compound 0.316 µM): > 100 nM
IC50 (second compound 1 µM): > 100 nM
IC50 (second compound 3.16 µM): > 100 nM
IC50 (second compound 10 µM): > 100 nM
viability, T/C (second compound 0.0316 µM, first compound 0.000316 µM): 107%
viability, T/C (second compound 0.0316 µM, first compound 0.001 µM): 110%
viability, T/C [25]: 118%
viability, T/C [26]: 89.7%
viability, T/C [1]: 109%
viability, T/C [2]: 96.8%
viability, T/C (second compound 0.1 µM, first compound 0.000316 µM): 89.2%
viability, T/C (second compound 0.1 µM, first compound 0.001 µM): 96.9%
viability, T/C [27]: 100%
viability, T/C [28]: 117%
viability, T/C [5]: 96%
viability, T/C [6]: 107%
viability, T/C (second compound 0.316 µM, first compound 0.000316 µM): 92.9%
viability, T/C (second compound 0.316 µM, first compound 0.001 µM): 101%
viability, T/C [29]: 102%
viability, T/C [30]: 103%
viability, T/C [9]: 97.3%
viability, T/C [10]: 89.3%
viability, T/C (second compound 1 µM, first compound 0.000316 µM): 95.2%
viability, T/C (second compound 1 µM, first compound 0.001 µM): 89.9%
viability, T/C [31]: 99.3%
viability, T/C [32]: 88.9%
viability, T/C [13]: 89.3%
viability, T/C [14]: 79.5%
viability, T/C (second compound 3.16 µM, first compound 0.000316 µM): 90.9%
viability, T/C (second compound 3.16 µM, first compound 0.001 µM): 104%
viability, T/C [33]: 85.8%
viability, T/C [34]: 101%
viability, T/C [17]: 92.3%
viability, T/C [18]: 81.1%
viability, T/C (second compound 10 µM, first compound 0.000316 µM): 72%
viability, T/C (second compound 10 µM, first compound 0.001 µM): 75.9%
viability, T/C [35]: 81.9%
viability, T/C [36]: 66.8%
viability, T/C [21]: 77.6%
viability, T/C [22]: 73.3%
